Blank lines part the entries; values can stand above or below the compound they belong to. Where a SMILES comes first, the peptide text is derived from it. Where no end group is shown, it is not given here. [ ]: non-standard residue; d: D form. The star is where a group is joined. AMC = Cc1cc(=O)oc2cc(N*)ccc12; Nle = CCCC[CH](N)C(=O)O; Cbz = O=C(OCc1ccccc1)*; NHOH = ON*
Assays:
[1] = Heparin binding of compounds (heparin sepharose CL-6B beads); conditions: compound at 5 uM
Procedure: Heparin binding—5 μM of the selected compound was prepared in a solution of PBS pH 7.2 with 0.05% Tween and 5% DMSO. […] Excess water was discarded by filtration using a Multiscreen vacuum manifold (Millipore, Cat No. MAVM 096 00). 200 μl of each compound tested was transferred to three wells of the filter plate—one empty well, one with sepharose CL-6B and one with heparin sepharose CL-6B. Plates were rotated for 2 hrs at 37° C. followed by filtration to a new 96 well clear plate, using a Multiscreen vacuum manifold. The absorbance spectrum of the filtrate in each well was determined using a VERSAmax plate reader (Molecular devices). Percent of heparin binding was calculated from the binding to heparin sepharose CL-6B as compared to the binding of the compound to the control sepharose CL-6B beads.

pro-heparanase (H60) = target: T1, pro-heparanase (H60) (Homo sapiens, UniProt Q9Y251, K307R); assay: Pro-heparanase activation in a cell-based assay (293 cells, DMB assay); conditions: inhibition of pro-heparanase activation
T1 sequence (Q9Y251 36-543 K307R): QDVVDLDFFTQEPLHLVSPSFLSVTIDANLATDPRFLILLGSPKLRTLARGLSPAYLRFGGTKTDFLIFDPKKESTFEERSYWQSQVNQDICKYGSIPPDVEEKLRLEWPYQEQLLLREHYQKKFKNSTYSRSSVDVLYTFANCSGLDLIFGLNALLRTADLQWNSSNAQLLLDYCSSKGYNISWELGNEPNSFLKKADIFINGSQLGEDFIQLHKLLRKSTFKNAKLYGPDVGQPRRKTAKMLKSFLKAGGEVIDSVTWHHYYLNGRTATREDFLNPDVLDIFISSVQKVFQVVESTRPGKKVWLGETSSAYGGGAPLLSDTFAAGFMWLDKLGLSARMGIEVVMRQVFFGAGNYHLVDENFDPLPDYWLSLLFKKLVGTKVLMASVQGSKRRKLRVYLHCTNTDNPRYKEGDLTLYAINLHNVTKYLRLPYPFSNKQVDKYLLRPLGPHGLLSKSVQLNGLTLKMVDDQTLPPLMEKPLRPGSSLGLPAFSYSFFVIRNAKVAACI

Heparanase = target: T2, Heparanase (Homo sapiens, UniProt Q9Y251, K307R); assay: Dimerization assay (H53 hetero-dimer formation, di-methyl-methylene-blue); assay type: biochemical; conditions: inhibition of H53 hetero-dimer formation by H8-derived peptides; read-out: IC50 H53
T2 sequence (Q9Y251 158-543 K307R limits assumed): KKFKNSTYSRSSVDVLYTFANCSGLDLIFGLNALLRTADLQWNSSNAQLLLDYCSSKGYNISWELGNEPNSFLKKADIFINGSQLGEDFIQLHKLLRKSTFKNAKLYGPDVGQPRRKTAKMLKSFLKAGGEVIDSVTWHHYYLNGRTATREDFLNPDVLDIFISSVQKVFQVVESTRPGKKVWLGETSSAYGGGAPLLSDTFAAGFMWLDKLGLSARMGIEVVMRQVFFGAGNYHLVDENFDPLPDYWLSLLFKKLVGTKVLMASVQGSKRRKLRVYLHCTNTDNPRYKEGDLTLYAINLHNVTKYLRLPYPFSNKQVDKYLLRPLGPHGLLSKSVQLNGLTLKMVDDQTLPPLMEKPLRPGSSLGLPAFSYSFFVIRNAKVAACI
T2 sequence (Q9Y251 36-109 limits assumed): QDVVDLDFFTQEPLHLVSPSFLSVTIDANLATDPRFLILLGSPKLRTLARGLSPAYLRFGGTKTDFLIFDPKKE
Text: Dimerization assay—Activation assay using di-methyl-methylene-blue was effected as described in U.S. Pat. No. 6,190,875.

293 cell extract = assay: Cleavage of Z-Pro-Lys-Lys-Glu-AMC (Peptide 1) by 293 cell extract and its inhibition by protease inhibitors; assay type: biochemical, human; set-up: % Inhibition: concentration or dose not given beside the values; conditions: for % Inhibition: inhibition of Z-Pro-Lys-Lys-Glu-AMC cleavage by 293 cell extract
Procedure: Following a 20 minutes incubation at 37° C., fluorescence released due to proteolytic activity was determined using a BMG POLARstar™ Galaxy fluorometer: excitation at 390 nm and emission at 460 nm.

[2] = Table 11, heparin-binding compounds
[3] = Table 7, 5-(5-Phenyl-furan-2-ylmethylene)rhodanine analogs
[4] = Table 12, known inhibitors of cathepsin B activity

Binding to heparin (5 uM) [1]: 66% | IC50 (pro-heparanase (H60); [2]): 12 µM
Compound: CCN1C=C/C(=C/C=c2/s/c(=C\c3sc(-c4ccccc4)c(-c4ccccc4)[n+]3CC)n(CC)c2=O)c2ccccc21 [Compound 115]

IC50 (pro-heparanase (H60); [3]): 14.3 µM
Compound: O=C(O)CCCN1C(=O)C(=Cc2ccc(-c3ccccc3[N+](=O)[O-])o2)SC1=S [Compound 3]

Binding to heparin (5 uM) [1]: 61% | IC50 (pro-heparanase (H60); [2]): 6 µM
Compound: CC[n+]1c(/C=C/Nc2ccccc2)sc2c3ccccc3sc21 [Compound 118]

IC50 (Heparanase): 5 µM
Compound: RFLILL [Compound P8-18]

Compound: Z-Glu-His-Tyr-Gln-AMC (Cbz-EHYQ-{AMC}; SMILES Cc1cc(=O)oc2cc(NC(=O)[C@H](CCC(N)=O)NC(=O)[C@H](Cc3ccc(O)cc3)NC(=O)[C@H](Cc3c[nH]cn3)NC(=O)[C@H](CCC(=O)O)NC(=O)OCc3ccccc3)ccc12) [Peptide 2]
cleavage by 293 cell extract (293 cell extract; different pHs, pH range 4.5-7.5): not cleaved

Compound: CSCC[C@@H](C=O)NC(=O)[C@H](CC(C)C)NC(=O)[C@H](CC(C)C)NC(C)=O [Calpain inhibitor II, N-Acetyl-Leu-Leu-Met-CHO] (Ac-Leu-Leu-Met-aldehyde)
% Inhibition (293 cell extract): 98%

IC50 (pro-heparanase (H60); [3]): 3 µM
Compound: O=C(O)CCN1C(=O)C(=Cc2ccc(-c3ccc(Cl)cc3Cl)o2)SC1=S [Compound 9]

Compound: O=C(O)[C@@H](Cc1ccccc1)NS(=O)(=O)c1ccc(-c2ccccc2)cc1 [MMP 2,9 inhibitor]
% Inhibition (293 cell extract): 0%

Compound: N=C(N)c1ccccc1 [benzamidine]
% Inhibition (293 cell extract): 13%

IC50 (pro-heparanase (H60); [4]): 23 µM
Compound: CCCNC(=O)C1OC1C(=O)NC(C(=O)N1CCCC1C(=O)OC)C(C)CC (stereo not shown) [Compound 125, reference compound]

IC50 (pro-heparanase (H60); [3]): 30 µM
Compound: O=C(O)CCN1C(=O)C(=Cc2ccc(-c3ccccc3[N+](=O)[O-])o2)SC1=S [Compound 10]

Binding to heparin (5 uM) [1]: 61% | IC50 (pro-heparanase (H60); [2]): 3.5 µM
Compound: CCC(/C=C1\Sc2ccc3ccccc3c2N1CC)=C\c1sc2ccc(-c3ccccc3)cc2[n+]1CC [Compound 120]

Compound: CC(C)CC(NC(=O)C1CCCN1C(=O)OCc1ccccc1)C(=O)NCC(=O)NO (stereo not drawn) [Z-Pro-Leu-Gly hydroxamate] (Cbz-Pro-Leu-Gly-{NHOH}; configuration not given here)
% Inhibition (293 cell extract): 0%

IC50 (pro-heparanase (H60); [4]): 32 µM
Compound: CC(C)CC(NC(=O)C1OC1C(=O)O)C(=O)NCCCCNC(=N)N (stereo not shown) [Compound 127, reference compound]

IC50 (pro-heparanase (H60); [3]): 46 µM
Compound: O=C(O)CN1C(=O)C(=Cc2ccc(-c3cccc(C(=O)O)c3)o2)SC1=S [Compound 27]

IC50 (pro-heparanase (H60); [3]): 0.52 µM
Compound: O=C(O)CCCCCN1C(=O)C(=Cc2ccc(-c3ccc(Cl)cc3)o2)SC1=S [Compound 2]

Binding to heparin (5 uM) [1]: 51% | IC50 (pro-heparanase (H60); [2]): 1.74 µM
Compound: CCN1/C(=C/C=C/c2sc3ccc(OC)cc3[n+]2CC)Sc2ccc3ccccc3c21 [Compound 119]

Binding to heparin (5 uM) [1]: 48% | IC50 (pro-heparanase (H60); [2]): 7 µM
Compound: C=CCn1c(=O)/c(=C\C=C2\C=CN(CC)c3ccccc32)s/c1=C\c1sc(-c2ccccc2)c(-c2ccccc2)[n+]1CC [Compound 114]

Binding to heparin (5 uM) [1]: 47% | IC50 (pro-heparanase (H60); [2]): 5.27 µM
Compound: CC[n+]1ccc(/C=C/C=C2\Sc3ccc4ccccc4c3N2C)c2ccccc21 [Compound 121]

IC50 (pro-heparanase (H60); [3]): 7 µM
Compound: O=C(O)CN1C(=O)C(=Cc2ccc(-c3cccc(C(F)(F)F)c3)o2)SC1=S [Compound 26]

IC50 (pro-heparanase (H60); [3]): 18 µM
Compound: O=C(O)CN1C(=O)C(=Cc2ccc(-c3ccc(Cl)cc3Cl)o2)SC1=S [Compound 18]

IC50 (pro-heparanase (H60); [3]): 2.8 µM
Compound: O=C(O)CCN1C(=O)C(=Cc2ccc(-c3ccc([N+](=O)[O-])cc3)o2)SC1=S [Compound 11]

IC50 (pro-heparanase (H60); [4]): 10 µM
Compound: CSCCC(C=O)NC(=O)C(CC(C)C)NC(=O)C(CC(C)C)NC(C)=O (stereo not drawn) [Compound 124, reference compound] (Ac-Leu-Leu-Met-aldehyde; configuration not given here)

Binding to heparin (5 uM) [1]: 73% | IC50 (pro-heparanase (H60); [2]): 2.61 µM
Compound: C=CCn1c(=O)/c(=C\C=C2/Nc3c(sc(C)c3C)N2CC)s/c1=C\c1sc(-c2ccccc2)c(-c2ccccc2)[n+]1CC [Compound 113]

IC50 (pro-heparanase (H60); [3]): 13 µM
Compound: O=C1NC(=S)SC1=Cc1ccc(-c2ccc(Br)cc2)o1 [Compound 36]

IC50 (pro-heparanase (H60); [3]): 0.95 µM
Compound: O=C(O)c1ccc(-c2ccc(C=C3SC(=S)N(c4ccccc4)C3=O)o2)cc1 [Compound 48]

IC50 (pro-heparanase (H60); [3]): 41 µM
Compound: O=C1C(=Cc2ccc(-c3cccc([N+](=O)[O-])c3)o2)SC(=S)N1CCS(=O)(=O)O [Compound 35]

IC50 (pro-heparanase (H60); [3]): 3.8 µM
Compound: O=C(O)CN1C(=O)C(=Cc2ccc(-c3ccc(Cl)cc3)o2)SC1=S [Compound 16]

IC50 (pro-heparanase (H60); [3]): 27 µM
Compound: O=C(O)CN1C(=O)C(=Cc2ccc(-c3ccc(I)cc3)o2)SC1=S [Compound 22]

IC50 (pro-heparanase (H60); [3]): 129 µM
Compound: O=C1C(=Cc2ccc(-c3cccc(Cl)c3Cl)o2)SC(=S)N1c1ccccc1 [Compound 1013-0169]

IC50 (pro-heparanase (H60); [3]): 32 µM
Compound: O=C(O)CN1C(=O)C(=Cc2ccc(-c3ccccc3Cl)o2)SC1=S [Compound 14]

IC50 (pro-heparanase (H60); [3]): 29 µM
Compound: O=C(O)CN1C(=O)C(=Cc2ccc(-c3ccc([N+](=O)[O-])cc3Cl)o2)SC1=S [Compound 20]

Compound: O=C[C@H](Cc1ccc(O)cc1)NC(=O)[C@H](Cc1ccccc1)NC(=O)OCc1ccccc1 [Cathepsin L inhibitor II] (Cbz-Phe-Tyr-aldehyde)
% Inhibition (293 cell extract): 97%

Binding to heparin (5 uM) [1]: 71% | IC50 (pro-heparanase (H60); [2]): 3 µM
Compound: CN(C)c1ccc(/C=C/C2=[N+](C)c3ccccc3C2(C)C)cc1 [Compound 116]

IC50 (pro-heparanase (H60); [3]): 2.3 µM
Compound: O=C(O)CCN1C(=O)C(=Cc2ccc(-c3ccccc3)o2)SC1=S [Compound 7]

IC50 (pro-heparanase (H60); [3]): 21 µM
Compound: Cc1cc([N+](=O)[O-])ccc1-c1ccc(C=C2SC(=S)N(CC(=O)O)C2=O)o1 [Compound 25]

Compound: CC(=O)N[C@@H](CC(C)C)C(=O)N[C@@H](CC(C)C)C(=O)N[C@H](C=O)CCCNC(=N)N [Leupeptin]
% Inhibition (293 cell extract): 97%

IC50 (pro-heparanase (H60); [3]): 13 µM
Compound: O=C(O)c1ccc(-c2ccc(C=C3SC(=S)N(c4cccc([N+](=O)[O-])c4)C3=O)o2)cc1 [Compound 56]

IC50 (pro-heparanase (H60); [3]): 18 µM
Compound: Cc1ccc(-c2ccc(C=C3SC(S)=NC3=O)o2)cc1Cl [Compound 37]

IC50 (pro-heparanase (H60); [3]): 250 µM
Compound: O=C1C(=Cc2ccc(-c3ccc([N+](=O)[O-])cc3Cl)o2)SC(=S)N1c1ccccc1 [Compound 46]

Binding to heparin (5 uM) [1]: 66% | IC50 (pro-heparanase (H60); [2]): 9 µM
Compound: CN(C)c1ccc(/C=C/c2sc3ccc4ccccc4c3[n+]2C)cc1 [Compound 117]

IC50 (pro-heparanase (H60); Table 8, 5-(Heteroaryl-2-ylmethylene)rhodanine analogs): 52 µM
Compound: Cc1c(N2C(=O)C(=Cc3ccco3)SC2=S)c(=O)n(-c2ccccc2)n1C [Compound 76]

IC50 (pro-heparanase (H60); [3]): 37 µM
Compound: O=C(O)CN1C(=O)C(=Cc2ccc(-c3ccccc3[N+](=O)[O-])o2)SC1=S [Compound 24]

IC50 (pro-heparanase (H60); [3]): 20 µM
Compound: O=C(O)CN1C(=O)C(=Cc2ccc(-c3cc(Cl)ccc3Cl)o2)SC1=S [Compound 17]

Compound: CC(C)C[C@H](NC(=O)[C@H]1O[C@@H]1C(=O)O)C(=O)NCCCCN=C(N)N [Compound E-64]
% Inhibition (293 cell extract): 93%

IC50 (pro-heparanase (H60); [3]): 6 µM
Compound: O=C(O)CCN1C(=O)C(=Cc2ccc(-c3ccccc3Cl)o2)SC1=S [Compound 8]

IC50 (pro-heparanase (H60); [3]): 5 µM
Compound: O=C(O)c1cccc(-c2ccc(C=C3SC(=S)N(c4ccccc4)C3=O)o2)c1 [Compound 47]

IC50 (pro-heparanase (H60); [4]): 26 µM
Compound: CC(=O)NC(CC(C)C)C(=O)NC(CC(C)C)C(=O)NC(C=O)CCCNC(=N)N (stereo not shown) [Compound 126, reference compound]

IC50 (pro-heparanase (H60); [4]): 7.4 µM
Compound: CCCCC(C=O)NC(=O)C(CC(C)C)NC(=O)C(CC(C)C)NC(C)=O (stereo not drawn) [Compound 123, reference compound] (Ac-Leu-Leu-[Nle]-aldehyde; configuration not given here)

Binding to heparin (5 uM) [1]: 65% | IC50 (pro-heparanase (H60); [2]): 16 µM
Compound: CN1\C(=C/C=C/C=C/C=C/C2=[N+](C)c3ccccc3C2(C)C)C(C)(C)c2ccccc21 [Compound 122]

IC50 (pro-heparanase (H60); [3]): 2 µM
Compound: O=C(O)CN1C(=O)C(=Cc2ccc(-c3cccc(Cl)c3)o2)SC1=S [Compound 15]
